In patent publication US20030073654A1, “Stabilized transient gene expression” (Genespan Corporation, priority 1996, published 2003):

Key:
[1] = pH of aqueous solutions of the compounds; format: physicochemical; conditions: stock solutions prepared in culture media diluted with deionized water
Protocol: The pH values shown in Table 1 were determined in aqueous solutions made by diluting stock solutions prepared in culture media with deionized water.

[2] = system: SW480 P3 (ATCC #CCL228) human colon carcinoma cells; test: Screening assay for enhancement of transient expression (β-galactosidase gene, liposomal transfection, 6-well plates); format: cell-based; conditions: for G Factor (G14): Table 1, values without asterisk, days 4-14 after transfection; for X Factor / K Factor: Table 1; for X Factor: cumulative β-galactosidase vs control, first four days after transfection, compound at the mM given in the table; for K Factor: ratio of first order rate constants of change in expression, control vs compound
Excerpt: These parameters are called the “X” factor, the “G” factor, and the “K” factor. [formula]
This factor reflects the extent to which a chemical compound added to a transfected cell enhances stabilizes transient expression for the first four days following transfection. […] For example, if expression is doubled in the presence of a compound, […]. […] X may be calculated similarly when the agent in question is a mixture of more than one chemical compound.
Cumulative protein expression, i.e., the values for “A” and “C”, is measured by summing the values measured daily in aliquots of the cultured cells.
2. G factors. G factors differ from the X factor only with respect to the time period evaluated. For calculating a G factor, the amount of protein expressed is measured from days 4-7 or days 4-14, where day 0 is the day on which the foreign DNA is added to the cells. The subscripts denote which of the two time periods provided the basis for measurement. […] As for the X factor, [formula]
3. K factor. The K factor is the ratio of the rate constants for the change in the foreign DNA expression in control transfected cells and in cells exposed to a chemical compound of the subject invention. K is determined according to the following equation: [formula]
wherein “k(DNA)” is the first order rate constant for the change in concentration of the protein expressed from the transgenic DNA, which is expressing protein as a function of time, i.e., [formula]
Values for k(DNA) are derived by using a computer program that plots the log of the foreign protein concentration against time, using the results of transgenic protein measurements that begin about 24 hours after the foreign DNA has been added to the cell. […] However, the program calculates a “best fit” line for each data set, and determines the slope of that portion of the resulting line that corresponds to the period during which protein production is changing. […] Thus, the slope is calculated during this period of decline to provide values for k(DNA) and K that can be compared for the purpose of comparing the efficacy of different chemical compounds.
SW480 P3 (ATCC #CCL228) human colon carcinoma cells (typically, 1×10^6 cells) were plated in the wells of a 6-well tissue culture plate. The number of wells plated reflected the number of days post-transfection during which the experiment would proceed. Each well contained 1 ml of complete media from a 30 ml stock solution containing: 26.4 ml RPMI tissue culture medium, 4 mM L-glutamine, 3.0 ml fetal bovine serum, and 10 μg/ml gentamicin. Cells were cultured at 37° C. in a CO2 incubator with 10% CO2 for 24 hours after being plated, during which time the cells adhered to the plates.
After the 24 hour pre-incubation step, the transfection step was carried out by removing the RPMI and adding 900 μL OPTI-MEM® (Gibco) medium containing 2 μg of VR1412 DNA (Vical, Inc., San Diego, Calif.), which expresses the bacterial β-galactosidase gene under the control of a cytomegalovirus promoter, and 8 μg of a mixture of cationic lipid (1,2-dimyristyloxyproply-3-dimethyl-hydroxyethyl ammonium bromide (e.g., “DMRIE/DOPE”) mixed in equimolar proportions with dioleoylphosphatidylethanolamine) to yield a lipid:DNA molar ratio of 0.99:1. It should be noted that typical transient transfection protocols employ 10 μg DNA per 10^6 cells, but the protocol described here uses less DNA in order to reduce toxicity to the cells. The plates were then incubated for 4 hours at 37° C.
After the 4 hour incubation step, 100 μl of heat deactivated fetal bovine serum (to stop transfection), plus 12.0 μl of 50 mg/ml gentamicin were added to each well.

[3] = Table 1, days 4-7 after transfection

Compound	pH (H20) [1]	pH (H20) ([1]; listed as glutathione)	G Factor (G14) [2]	X Factor [2]	K Factor [2]	G Factor (G7) ([2]; Table 1, values marked with asterisk, days 4-7 after transfection)	G Factor (G7) [2, 3]	effect on transient expression [2]
N[C@@H](CCC(=O)N[C@@H](CS)C(=O)NCC(=O)O)C(=O)O [GLUTATHIONE]	3.58	~3	34	2	1			
NCC(=O)O [GLYCINE]	7.27		40	−.34	2			
O=C(O)CNC(=O)c1ccccc1 [HIPPURIC ACID]	6.46		33	2	1			
N[C@@H](Cc1c[nH]cn1)C(=O)O [HISTIDINE]	6.75		6		1, 1	54		
N[C@@H](CCO)C(=O)O [HOMOSERINE]	7.4		39	77				
CC[C@H](C)[C@H](N)C(=O)O [ISOLEUCINE]	6.99		30	−119				
N=C(N)NCCC[C@H](N)C(=O)O [L-ARGININE]	8.66		57				11	
NC(=O)CC[C@H](N)C(=O)O [L-GLUTAMINE]	7.14		23	−13				
NCCCC[C@H](N)C(=O)O [L-LYSINE]	8.34		−10				9	
C[C@@H](O)[C@H](N)C(=O)O [L-THREONINE]	8.14		40	28	1			
CC(C)C[C@H](N)C(=O)O [LEUCINE]	7.88		32	−13				
CSCC[C@H](N)C(=O)O [METHIONINE]	7.41		36	2	0			
CCOC(=O)CC[C@H](NCc1ccc(N)cc1)C(=O)OCC [N-(4-AMINOBENZYL)-L-GLUTAMIC DIETHYLESTER]	6.44		8	−35				
CSCC[C@H](NC=O)C(=O)O [N-FORMYL-L-METHIONINE]	4.34		63	26				
O=C(O)c1cccnc1 [NICOTINIC ACID]	6.91		87	12	1			
N[C@@H](Cc1ccccc1)C(=O)O [PHENYLALANINE]	6.97		53	−12	3			
O=C(O)[C@@H]1CCCN1 [PROLINE]	7.71		21	−22				
NC(=O)SC[C@H](N)C(=O)O [S-CARBAMYL-L-CYSTEINE]	6.52		−74	−76				
N[C@@H](CO)C(=O)O [SERINE]	7.4		104	43	1			
O=C([O-])c1ccccc1.[Na+] [SODIUM BENZOATE]	8.14		−6	−15	1			
NCCS(=O)(=O)O [TAURINE]	7.88		34	−20	2			
N[C@@H](Cc1c[nH]c2ccccc12)C(=O)O [TRYPTOPHAN]	6.25		67	55	2			
N[C@@H](Cc1ccc(O)cc1)C(=O)O [TYROSINE]	7.88		52	36	2			
CC(C)[C@H](N)C(=O)O [VALINE]	8.12		40	−18	2			
C[C@H](N)C(=O)O [α-ALANINE]	7.27		35	31				
CCC(N)C(=O)O (stereo not drawn) [α-AMINO-n-BUTYRIC ACID]	7.58		35	−.19	1			
O=C(O)CCC(=O)C(=O)O [α-KE[…]]	3.75		53	7.28				
NCCC(=O)O [β-ALANINE]	8.38		33	0.2	1			
O=S(=O)(O)CC(O)CN(CCO)CCO (stereo not shown) [′3-[BIS(2HYDROXYETHYL AMINO)]-2-HYDROXYL-′1-PROPANE SULFONIC ACID]	6.81		−10	−55				
MELANIN	3.45							significantly suppress transient expression
